From US20040132188A1, “Use of non-complexing peptides for the preparation of a composition for transfection of a polynucleotide into a cell and compositions useful in gene therapy” (priority 2001, published 2004)
Ends that are not written are not given here.

Columns and labels:
[1] = test system: 293-EBNA cells; test: Transfection in vitro, luciferase plasmid pTG11056; format: cell-based; settings: charge ratio around 1
Method: Cells were plated on 24 well plates at a density of 4×10^4 (293-EBNA ) or 7×10^4 (HeLa, Renca) cells/well in DMEM supplemented with 10% FCS. The next day, the medium was replaced by 200 μl serum-free DMEM and plasmid (PTG11056 or pTG11236)/peptide complexes or plasmid/peptide/lipid complexes were prepared in 30 μl 0.9% NaCl or 5% glucose. After 20 min at room temperature these complexes were added to the cells which were then incubated for 2-3 h at 37° C. and 5% CO2 before 1 ml serum-containing DMEM was added. Approximately 20 hours later, cells were lysed by addition of 100 μl 1× Promega lysis buffer, 20 μl of the lysates were analysed for luciferase activity. Proteins were quantified with the bicinchonic acid (BCA) colorimetric method (Smith, Anal. Biochem. 150 (1985), 76-85).
4×10^4 293-EBNA cells, plated on 24 well plates the day before, were transfected with 0.5 μg, 0.1 μg, 0.05 μg arid 0.01 μg of the plasmid pTG11056. The plasmid was either mixed with completely or uncompletely DNA-complexing amounts of ppTG1 in 30 μl 5% glucose and after 20 min at room temperature the mixture was added to the cells which were incubated in 200 μl serum-free medium. Further, pTG11056 was formulated with the established transfection reagents Lipofectin and PEI. […] After twenty hours, cells were washed and luciferase activity was determined in ⅕of the lysed cells.

[2] = Liposome leakage assay, calcein-containing POPC liposomes; format: biochemical
Method: Leakage activity was plotted against peptide concentration.
The peptide ppTG1 was tested for its capacity to cause membrane disruption in a liposome leakage assay with POPC liposomes containing the fluorescent product calcein. […] Release of calcein by Triton X-100 treatment was taken as positive control reaction, incubation with water served as negative control. The membranolytic activity of peptide ppTG1 (20 μg as starting point) was compared with those of equal quantities (20 μg) of JTS-1, JTS-1-K13 and KALA.

[3] = Liposome leakage assay, POPC/cholesterol 3:2 liposomes; format: biochemical; settings: POPC/chol liposomes, pH 5

With GLFKALLKLLKSLWKLLLKA the transfection efficiency ([1]; 0.05 μg pTG11056 with 0.065 μg peptide) was “high transfection efficiency”, the luciferase activities ([1]; 0.5 μg pTG11056 with 0.65 μg peptide) was “higher than those observed with complexes formed with Lipofectin or PEI” and the membrane disruption ([2]; pH 5) was “capable of causing membrane disruption”. The membrane disruption ([2]; pH 7) was “capable of causing membrane disruption” and the “liposome leakage activity / calcein release” value [3] was “efficiently liberate calcein”.
